Measured values as given in paper PMC11995724, “Antibiotic target discovery by integrated phenotypic and activity-based profiling of electrophilic fragments” (Cell chemical biology, 2025).
Structures can show the parent of a compound that is named as a salt.

Assay: in vitro
Details: human, hek293t cells

Compound | viability at 48 h, 25 µM [%]
CS(=O)(=O)N1CCC(N(CC(F)F)C(=O)CCl)CC1 [5-O12, 2-chloro-N-(2,2-difluoroethyl)-N-(1-methanesulfonylpiperidin-4-yl)acetamide] | 1.77
O=C(CCl)Nc1ccnn1Cc1cccs1 [5-O13, 2-chloro-N-{1-[(thiophen-2-yl)methyl]-1H-pyrazol-5-yl}acetamide] | 0.591
CCC(NC(=O)CCl)c1nc(C)n[nH]1 (centres unmarked) [5-O14, 2-chloro-N-[1-(3-methyl-1H-1,2,4-triazol-5-yl)propyl]acetamide] | 96.8
CC1CN(S(=O)(=O)c2ccc(NC(=O)CCl)cc2)CC(C)O1 (centres unmarked) [5-O15, 2-chloro-N-{4-[(2,6-dimethylmorpholin-4-yl)sulfonyl]phenyl}acetamide] | 1.43
COc1ccccc1C1CSCCCN1C(=O)CCl (centres unmarked) [5-O16, 2-chloro-1-[3-(2-methoxyphenyl)-1,4-thiazepan-4-yl]ethan-1-one] | 78.1
COc1ccc(N(Cc2cccs2)C(=O)CCl)cc1 [5-O17, 2-chloro-N-(4-methoxyphenyl)-N-[(thiophen-2-yl)methyl]acetamide] | 0.692
O=C(CCl)N1CC(NC(=O)C(F)(F)F)CCC1C(F)(F)F (centres unmarked) [5-O18, N-[1-(2-chloroacetyl)-6-(trifluoromethyl)piperidin-3-yl]-2,2,2-trifluoroacetamide] | 6.17
CC(=O)c1ccccc1NC(=O)C(C)Cl (centres unmarked) [5-O19, N-(2-acetylphenyl)-2-chloropropanamide] | 90.1
COC1CCC(N(Cc2cc(C)oc2C)C(=O)CCl)CC1 (centres unmarked) [5-O20, 2-chloro-N-[(2,5-dimethylfuran-3-yl)methyl]-N-(4-methoxycyclohexyl)acetamide] | 2.21
CC(Cl)C(=O)NC1CCCCCC1 (centres unmarked) [5-O21, 2-chloro-N-cycloheptylpropanamide] | 105
COc1ccc(CC2CCN2C(=O)C(C)Cl)cc1 (centres unmarked) [5-O22, 2-chloro-1-{2-[(4-methoxyphenyl)methyl]azetidin-1-yl}propan-1-one] | 88.3
O=C(CCl)N(Cc1cc(F)ccc1F)CC1CCOCC1 [5-P03, 2-chloro-N-[(2,5-difluorophenyl)methyl]-N-[(oxan-4-yl)methyl]acetamide] | 0.456
N#Cc1ccccc1NC(=O)CCl [5-P04, 2-chloro-N-(2-cyanophenyl)acetamide] | 0.525
CNC(=O)c1cc(OC2CCCN(C(=O)CCl)C2)ccn1 (centres unmarked) [5-P05, 4-{[1-(2-chloroacetyl)piperidin-3-yl]oxy}-N-methylpyridine-2-carboxamide] | 1.84
O=C(CCl)NCc1ccccc1Cn1cccn1 [5-P06, 2-chloro-N-({2-[(1H-pyrazol-1-yl)methyl]phenyl}methyl)acetamide] | 94
N#CCCN(C(=O)CCl)c1ccccc1F [5-P07, 2-chloro-N-(2-cyanoethyl)-N-(2-fluorophenyl)acetamide] | 1.04
CC(C1CC1)N(CC(F)(F)F)C(=O)CCl (centres unmarked) [5-P08, 2-chloro-N-(1-cyclopropylethyl)-N-(2,2,2-trifluoroethyl)acetamide] | 90.7
O=C(CCl)NC1CCN(c2ccncc2)CC1 [5-P09, 2-chloro-N-[1-(pyridin-4-yl)piperidin-4-yl]acetamide hydrochloride] | 48.1
Cc1cccc(NC(=O)C(C)Cl)c1 (centres unmarked) [5-P10, 2-chloro-N-(3-methylphenyl)propanamide] | 96.2

Compound | viability at 48 h, 25 µM [%]
CC(NC(=O)CCl)c1cc(C(F)(F)F)[nH]n1 (centres unmarked) [5-P11, 2-chloro-N-{1-[5-(trifluoromethyl)-1H-pyrazol-3-yl]ethyl}acetamide] | 0.786
CC(C)c1ccc(Cn2[nH]ccc2=NC(=O)CCl)cc1 [5-P12, 2-chloro-N-(2-{[4-(propan-2-yl)phenyl]methyl}-2,3-dihydro-1H-pyrazol-3-ylidene)acetamide] | -0.215
CC(=O)NCc1ccc(C2CCCN2C(=O)CCl)o1 (centres unmarked) [5-P13, N-({5-[1-(2-chloroacetyl)pyrrolidin-2-yl]furan-2-yl}methyl)acetamide] | 0.652
CC(Cl)C(=O)Nc1cccc(C(F)(F)F)c1 (centres unmarked) [5-P14, 2-chloro-N-[3-(trifluoromethyl)phenyl]propanamide] | 90.7
CC(Cl)C(=O)NCc1ncnn1C(C)C (centres unmarked) [5-P15, 2-chloro-N-{[1-(propan-2-yl)-1H-1,2,4-triazol-5-yl]methyl}propanamide] | 125
CC(=O)c1ccc(S(=O)(=O)N2CCN(C(=O)CCl)CC2)cc1 [5-P16, 1-[4-(4-acetylbenzenesulfonyl)piperazin-1-yl]-2-chloroethan-1-one] | 1.74
CC(Cl)C(=O)N(Cc1ccc(Cl)cc1)Cc1cnn(C)c1 (centres unmarked) [5-P17, 2-chloro-N-[(4-chlorophenyl)methyl]-N-[(1-methyl-1H-pyrazol-4-yl)methyl]propanamide] | 116
Cc1cc(C)cc(N(CCC#N)C(=O)CCl)c1 [5-P18, 2-chloro-N-(2-cyanoethyl)-N-(3,5-dimethylphenyl)acetamide] | 0.915
O=C(CN1CCN(C(=O)CCl)CC1)Nc1cccc(F)c1 [5-P19, 2-[4-(2-chloroacetyl)piperazin-1-yl]-N-(3-fluorophenyl)acetamide hydrochloride] | 1.84
Cc1cccc(C)c1NC(=O)CCl [5-P20, 2-chloro-N-(2,6-dimethylphenyl)acetamide] | 112
CC(Cl)C(=O)N1Cc2ccoc2CC(C)(C)C1 (centres unmarked) [5-P21, 2-chloro-1-{7,7-dimethyl-4H,5H,6H,7H,8H-furo[3,2-c]azepin-5-yl}propan-1-one] | 132
COc1ccc(C)cc1NC(=O)C(C)Cl (centres unmarked) [5-P22, 2-chloro-N-(2-methoxy-5-methylphenyl)propanamide] | 108
O=C(CCl)Nc1cccc(NC(=O)c2ccccc2)c1 [6-A03, N-[3-(2-chloroacetamido)phenyl]benzamide] | -0.0459
COc1c(C)cnc(CN2CCC(N(C)C(=O)C(C)Cl)CC2)c1C (centres unmarked) [6-A04, 2-chloro-N-{1-[(4-methoxy-3,5-dimethylpyridin-2-yl)methyl]piperidin-4-yl}-N-methylpropanamide] | 124
O=C(CCl)Nc1cc(-n2cnnn2)ccc1Cl [6-A05, 2-chloro-N-[2-chloro-5-(1H-1,2,3,4-tetrazol-1-yl)phenyl]acetamide] | 0.726
Cc1csc(Cl)c1NC(=O)CCl [6-A06, 2-chloro-N-(2-chloro-4-methylthiophen-3-yl)acetamide] | 0.632
CC(Cl)C(=O)NC(C)c1ccc2c(c1)CCCC2 (centres unmarked) [6-A07, 2-chloro-N-[1-(5,6,7,8-tetrahydronaphthalen-2-yl)ethyl]propanamide] | 93.1
O=C(CCl)NCCOc1ccc(F)cc1 [6-A08, 2-chloro-N-[2-(4-fluorophenoxy)ethyl]acetamide] | 1.34
CC(Cl)C(=O)Nc1cc(F)ccc1F (centres unmarked) [6-A09, 2-chloro-N-(2,5-difluorophenyl)propanamide] | 96

Compound | viability at 48 h, 25 µM [%]
Cc1cc(C)c(-c2cc(NC(=O)CCl)n(-c3ccccc3)n2)cc1C [6-A10, 2-chloro-N-[1-phenyl-3-(2,4,5-trimethylphenyl)-1H-pyrazol-5-yl]acetamide] | 0.264
CC(Cl)C(=O)Nc1ccccc1C#N (centres unmarked) [6-A11, 2-chloro-N-(2-cyanophenyl)propanamide] | 97.2
Cc1ccc(C(=O)c2c(NC(=O)CCl)sc3c2CCCC3)cc1 [6-A12, 2-chloro-N-[3-(4-methylbenzoyl)-4,5,6,7-tetrahydro-1-benzothiophen-2-yl]acetamide] | 14
O=C(CCl)Nc1ccc2c(c1)oc1ccccc12 [6-A13, 2-chloro-N-{8-oxatricyclo[7.4.0.0,2,7]trideca-1(9),2(7),3,5,10,12-hexaen-5-yl}acetamide] | -0.0548
O=C(CCl)NCCOc1ccc2ccccc2c1 [6-A14, 2-chloro-N-[2-(naphthalen-2-yloxy)ethyl]acetamide] | 0.0621
CC(Cl)C(=O)Nc1cc(Cl)ccc1Cl (centres unmarked) [6-A15, 2-chloro-N-(2,5-dichlorophenyl)propanamide] | 86.9
COc1ccc(Cl)cc1CNC(=O)CCl [6-A16, 2-chloro-N-[(5-chloro-2-methoxyphenyl)methyl]acetamide] | 0.564
N#CCCN(C(=O)CCl)c1cccc(Cl)c1 [6-A17, 2-chloro-N-(3-chlorophenyl)-N-(2-cyanoethyl)acetamide] | -0.154
CC(NC(=O)CCl)c1ccc2ncsc2c1 (centres unmarked) [6-A18, N-[1-(1,3-benzothiazol-6-yl)ethyl]-2-chloroacetamide] | 2.3
CN(CC1CCCCC1)C(=O)C(C)(C)NC(=O)CCl [6-A19, 2-(2-chloroacetamido)-N-(cyclohexylmethyl)-N,2-dimethylpropanamide] | 61.9
CCC(C)n1nccc1NC(=O)C(C)Cl (centres unmarked) [6-A20, N-[1-(butan-2-yl)-1H-pyrazol-5-yl]-2-chloropropanamide] | 84.8
CC(Cl)C(=O)Nc1sc2c(c1C(N)=O)CCC2 (centres unmarked) [6-A21, 2-(2-chloropropanamido)-4H,5H,6H-cyclopenta[b]thiophene-3-carboxamide] | 119
O=C(CCl)NCc1ccccc1[N+](=O)[O-] [6-A22, 2-chloro-N-[(2-nitrophenyl)methyl]acetamide] | 0.388
O=C(CCl)Nc1ncc[nH]1 [6-B03, 2-chloro-N-(1H-imidazol-2-yl)acetamide hydrochloride] | 37.4
O=C(CCl)NCc1coc(Cl)n1 [6-B04, 2-chloro-N-[(2-chloro-1,3-oxazol-4-yl)methyl]acetamide] | 106
CC(Cl)C(=O)NC1COCc2ccccc21 (centres unmarked) [6-B05, 2-chloro-N-(3,4-dihydro-1H-2-benzopyran-4-yl)propanamide] | 106
CC(Cl)C(=O)Nc1ccc(S(N)(=O)=O)cc1 (centres unmarked) [6-B06, 2-chloro-N-(4-sulfamoylphenyl)propanamide] | 101
CC(Cl)C(=O)NCc1cc2sccc2s1 (centres unmarked) [6-B07, 2-chloro-N-({thieno[3,2-b]thiophen-2-yl}methyl)propanamide] | 109
